Reference: patent US20240182561A1, “CALCIUM VOLTAGE-GATED CHANNEL AUXILIARY SUBUNIT GAMMA 1 (CACNG1) BINDING PROTEINS AND CACNG1-MEDIATED DELIVERY TO SKELETAL MUSCLE” (Regeneron Pharmaceuticals, Inc., priority 2022, published 2024)

Assays:
[1] = system: HEK293; assay: Indirect (secondary) cell killing assay; assay type: cell-based, human; settings: Table 11-3; maximum % kill
Excerpt: To test the ability of anti-CACNG1 antibodies described herein to bind, internalize, and deliver payloads, cell binding and indirect cell killing assays were developed with primary human skeletal myoblasts (Cook Myosite Cat #SkMDC SK-1111), C2C12 mouse myoblasts (ATCC Cat #CRL-1772), and HEK293 cells engineered to express human and mouse CACNG1 (HEK293/hCACNG1 and HEK293/mCACNG1, respectively). To generate the HEK293/hCACNG1 and HEK293/mCACNG1 cell lines, FuGEGE 6 (Promega, Cat #E2691/5/3) was used to transfect HEK293HZ cells with a human CACNG1 (hCACNG1; amino acid M1-H222, Accession #NP_000718.1) or mouse CACNG1 (mCACNG1; amino acid M1-H223, Accession #NP_031608.1) expression vector. HEK293HZ is a highly transfectable subclone of HEK293 cells (1) authenticated via STIR (short tandem repeat) profiling to be 81% identical to HEK293 cells sourced from ATCC). […]
(§1) An indirect cell killing assay was used to assess the ability of anti-CACNG1 antibodies to internalize and deliver payloads into cells. In vitro cytotoxicity of the anti-CACNG1 antibodies alone or in combination with Fab anti-human Fc or Fab anti-mouse Fc secondary antibodies conjugated to Duocarmycin DM (Moradec, Cat #AH-202-DD-50 or Cat #AM-202-DD-50) were evaluated using the CellTiter-Glo 2.0 Assay Kit (Promega, Cat #G9243), in which the quantity of ATP present is used to determine the number of viable cells in culture. […]

[2] = biological target: T1, HEK293/mCACNG1 (Mus musculus, UniProt O70578); assay: Indirect (secondary) cell killing assay; assay type: cell-based; settings: Table 11-3; maximum % kill
T1 construct: mouse CACNG1 (mCACNG1); expressed in transfected cells
T1 sequence (O70578 1-223): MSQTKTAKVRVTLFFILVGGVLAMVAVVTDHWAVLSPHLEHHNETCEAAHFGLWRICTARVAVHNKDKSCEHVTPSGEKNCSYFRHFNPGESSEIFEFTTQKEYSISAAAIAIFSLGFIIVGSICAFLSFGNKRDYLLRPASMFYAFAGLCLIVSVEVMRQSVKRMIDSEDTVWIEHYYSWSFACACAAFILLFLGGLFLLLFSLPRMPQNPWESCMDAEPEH
Excerpt: (§2) To test the ability of anti-CACNG1 antibodies described herein to bind, internalize, and deliver payloads, cell binding and indirect cell killing assays were developed with primary human skeletal myoblasts (Cook Myosite Cat #SkMDC SK-1111), C2C12 mouse myoblasts (ATCC Cat #CRL-1772), and HEK293 cells engineered to express human and mouse CACNG1 (HEK293/hCACNG1 and HEK293/mCACNG1, respectively). To generate the HEK293/hCACNG1 and HEK293/mCACNG1 cell lines, FuGEGE 6 (Promega, Cat #E2691/5/3) was used to transfect HEK293HZ cells with a human CACNG1 (hCACNG1; amino acid M1-H222, Accession #NP_000718.1) or mouse CACNG1 (mCACNG1; amino acid M1-H223, Accession #NP_031608.1) expression vector. HEK293HZ is a highly transfectable subclone of HEK293 cells (1) authenticated via STIR (short tandem repeat) profiling to be 81% identical to HEK293 cells sourced from ATCC). The HEK293HZ cell line was maintained in DMEM+10% FBS+1% L-glutamine/penicillin/streptomycin, while HEK293/hCACNG1 and HEK293/mCACNG1 cell lines were maintained in DMEM+10% FBS+1% L-glutamine/penicillin/streptomycin+500 ug/mL G418. Human skeletal myoblasts (HuSKM) were maintained in MyoTonic Basal Media (Cook Myosite Cat #MB-2222) supplemented with MyoTonic Growth Supplement (Cook Myosite Cat #MS-3333) and grown in a 37° C. incubator with 5% CO2. HuSKM were seeded in collagen-coated 96-well plates (Greiner Bio-One #655956) at 8,500 cells/well and grown for 24 hours. The growth media was changed to MyoTonic Differentiation Media (Cook Myosite Cat #MD-5555) and replaced every 2 days. Myotubes were assayed after 6 days of differentiation. C2C12 mouse myoblasts were maintained in DMEM with 10% FBS and 1% penicillin-streptomycin supplement and grown in a 37° C. incubator with 5% CO2. C2C12 cells were seeded in collagen-coated 96-well plates (Greiner Bio-One #655956) at 10,000 cells/well for the cell binding assay and 5,000 cells/well for the cell killing assay. After 24 hours, growth media was replaced with differentiation media (DMEM with 2% horse serum) and placed in a 37° C. incubator with 7.5% CO2. C2C12 myotubes were assayed after 3 days of differentiation. […]
as §1

[3] = biological target: T2, HEK293/hCACNG1 (Homo sapiens, UniProt Q06432); assay: Indirect (secondary) cell killing assay; assay type: cell-based; settings: Table 11-3; maximum % kill = 100 - minimum percent viability
T2 construct: human CACNG1 (hCACNG1); expressed in transfected cells
Excerpt: as §2, §1

[4] = system: primary human skeletal myotubes (HuSKM); assay: Indirect (secondary) cell killing assay; assay type: cell-based; settings: Table 11-3; maximum % kill
Excerpt: as §2, §1

[5] = system: mouse myotubes (C2C12); assay: Indirect (secondary) cell killing assay; assay type: cell-based; settings: Table 11-3; maximum % kill
Excerpt: as §2, §1

[6] = system: Dmpk; assay: In vivo siRNA durability of Dmpk knockdown; design: species or system mouse; settings: 1 week post treatment, 3 and 5 mg/kg siRNA; FIGS. 13A-13E
Experimental: All doses were adjusted for drug-to-antibody (DAR) ratio, i.e., mice were dosed based on siRNA amount for body weight, as determined by liquid chromatography electrospray ionization approaches described herein. […] Mice were sacrificed at either 1 week, 3 weeks, or 6 weeks post dosing. […] The following tissues were placed into RNAlater (ThermoFisher Catalog #AM7021): gastrocnemius, soleus, quadricep, tibialis anterior, diaphragm, heart, liver, spleen, kidney. Tissues were allowed to sit in RNAlater for at least 2 hours at room temperature before being transferred to −20° C. Total RNA was purified using MagMAX™-96 for Microarrays Total RNA Isolation Kit Catalog #AM1839 (Ambion by Life Technologies) according to manufacturer's specifications. […] Samples were then reverse transcribed using SuperScript VILO MasterMix (Invitrogen Catalog #11755-250) according to manufacturer's specifications. For TaqMan gene expression analysis, TaqMan Gene Expression MasterMix (ThermoFisher Scientific Ref #4369016) was used according to manufacturer's specifications. The probes used in the assay were as followed: Dmpk FAM (ThermoFisher Mm00446261_m1) and Rplp0 (ThermoFisher Mm01974474_gH).

T2 sequence (Q06432 whole entry): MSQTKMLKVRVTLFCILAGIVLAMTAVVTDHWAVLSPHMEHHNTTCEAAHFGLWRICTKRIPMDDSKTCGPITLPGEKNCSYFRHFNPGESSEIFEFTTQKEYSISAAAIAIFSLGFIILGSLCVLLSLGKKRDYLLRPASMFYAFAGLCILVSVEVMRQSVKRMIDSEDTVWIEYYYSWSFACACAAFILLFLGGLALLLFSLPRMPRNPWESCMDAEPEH

Row | Molecule | % KILL [1] | % KILL [2] | % KILL [3] | % KILL [4] | % KILL [5] | Dmpk knockdown in skeletal muscle [6]
1 | COC(=O)c1cc2c([nH]1)C(=O)C=C1N(C(=O)c3cc4cc(OC)c(OC)c(OC)c4[nH]3)C[C@H]3C[C@]123 [Duocarmycin] | 99.6% | 99.8% | 99.7% | 97.3% | 99.6% | 
2 | naked siRNA: siRNA against DMPK (siRNA1), SEQ ID NO: 416 sense and 417 antisense, used unconjugated as control (sense CCUCGGUAUUUAUUGUCUA; antisense UAGACAAUAAAUACCGAGG; listed as RNA, further chemistry not given here) |  |  |  |  |  | no noticeable knockdown
